# From the CheMixHub viscosity set
# ± gives the uncertainty stated by the source.
# Assay: xn = mol fraction of the nth substance listed
compound,measurement,setting,value
C=COCCCC + CCOC(=O)OCC,viscosity,"303.15 K, 100 kPa, x2 = 0.1011",0.406 ± 0.009 mPa·s
same,viscosity,"303.15 K, 100 kPa, x2 = 0.2003",0.429 ± 0.01 mPa·s
same,viscosity,"303.15 K, 100 kPa, x2 = 0.2975",0.452 ± 0.01 mPa·s
same,viscosity,"303.15 K, 100 kPa, x2 = 0.4029",0.48 ± 0.01 mPa·s
same,viscosity,"303.15 K, 100 kPa, x2 = 0.4992",0.509 ± 0.011 mPa·s
same,viscosity,"303.15 K, 100 kPa, x2 = 0.6014",0.542 ± 0.012 mPa·s
same,viscosity,"303.15 K, 100 kPa, x2 = 0.6975",0.575 ± 0.012 mPa·s
same,viscosity,"303.15 K, 100 kPa, x2 = 0.7978",0.614 ± 0.013 mPa·s
same,viscosity,"303.15 K, 100 kPa, x2 = 0.9004",0.656 ± 0.014 mPa·s
same,viscosity,"308.15 K, 100 kPa, x2 = 0.1011",0.386 ± 0.009 mPa·s
same,viscosity,"308.15 K, 100 kPa, x2 = 0.2003",0.406 ± 0.009 mPa·s
same,viscosity,"308.15 K, 100 kPa, x2 = 0.2975",0.43 ± 0.009 mPa·s
same,viscosity,"308.15 K, 100 kPa, x2 = 0.4029",0.454 ± 0.01 mPa·s
same,viscosity,"308.15 K, 100 kPa, x2 = 0.4992",0.483 ± 0.01 mPa·s
same,viscosity,"308.15 K, 100 kPa, x2 = 0.6014",0.515 ± 0.011 mPa·s
same,viscosity,"308.15 K, 100 kPa, x2 = 0.6975",0.547 ± 0.012 mPa·s
same,viscosity,"308.15 K, 100 kPa, x2 = 0.7978",0.583 ± 0.012 mPa·s
same,viscosity,"308.15 K, 100 kPa, x2 = 0.9004",0.62 ± 0.013 mPa·s
same,viscosity,"313.15 K, 100 kPa, x2 = 0.1011",0.365 ± 0.008 mPa·s
same,viscosity,"313.15 K, 100 kPa, x2 = 0.2003",0.383 ± 0.009 mPa·s
same,viscosity,"313.15 K, 100 kPa, x2 = 0.2975",0.403 ± 0.009 mPa·s
same,viscosity,"313.15 K, 100 kPa, x2 = 0.4029",0.426 ± 0.009 mPa·s
same,viscosity,"313.15 K, 100 kPa, x2 = 0.4992",0.451 ± 0.01 mPa·s
same,viscosity,"313.15 K, 100 kPa, x2 = 0.6014",0.481 ± 0.01 mPa·s
same,viscosity,"313.15 K, 100 kPa, x2 = 0.6975",0.511 ± 0.011 mPa·s
same,viscosity,"313.15 K, 100 kPa, x2 = 0.7978",0.545 ± 0.012 mPa·s
same,viscosity,"313.15 K, 100 kPa, x2 = 0.9004",0.582 ± 0.012 mPa·s
COCC(C)O (centres undefined) + CCO,viscosity,"298.15 K, 101.33 kPa, x1 = 0.0501",1.128 ± 0.018 mPa·s
same,viscosity,"298.15 K, 101.33 kPa, x1 = 0.1",1.174 ± 0.018 mPa·s
same,viscosity,"298.15 K, 101.33 kPa, x1 = 0.15",1.215 ± 0.019 mPa·s
same,viscosity,"298.15 K, 101.33 kPa, x1 = 0.2",1.253 ± 0.019 mPa·s
same,viscosity,"298.15 K, 101.33 kPa, x1 = 0.25",1.297 ± 0.02 mPa·s
same,viscosity,"298.15 K, 101.33 kPa, x1 = 0.3003",1.333 ± 0.021 mPa·s
same,viscosity,"298.15 K, 101.33 kPa, x1 = 0.35",1.369 ± 0.021 mPa·s
same,viscosity,"298.15 K, 101.33 kPa, x1 = 0.3999",1.405 ± 0.022 mPa·s
same,viscosity,"298.15 K, 101.33 kPa, x1 = 0.45",1.44 ± 0.022 mPa·s
same,viscosity,"298.15 K, 101.33 kPa, x1 = 0.5",1.477 ± 0.023 mPa·s
same,viscosity,"298.15 K, 101.33 kPa, x1 = 0.5498",1.508 ± 0.023 mPa·s
same,viscosity,"298.15 K, 101.33 kPa, x1 = 0.5998",1.537 ± 0.023 mPa·s
same,viscosity,"298.15 K, 101.33 kPa, x1 = 0.6498",1.564 ± 0.024 mPa·s
same,viscosity,"298.15 K, 101.33 kPa, x1 = 0.7",1.589 ± 0.024 mPa·s
same,viscosity,"298.15 K, 101.33 kPa, x1 = 0.75",1.61 ± 0.024 mPa·s
same,viscosity,"298.15 K, 101.33 kPa, x1 = 0.8002",1.629 ± 0.025 mPa·s
same,viscosity,"298.15 K, 101.33 kPa, x1 = 0.8498",1.647 ± 0.025 mPa·s
same,viscosity,"298.15 K, 101.33 kPa, x1 = 0.8999",1.665 ± 0.025 mPa·s
same,viscosity,"298.15 K, 101.33 kPa, x1 = 0.9499",1.677 ± 0.025 mPa·s
same,viscosity,"308.15 K, 101.33 kPa, x1 = 0.0501",0.933 ± 0.015 mPa·s
same,viscosity,"308.15 K, 101.33 kPa, x1 = 0.1",0.964 ± 0.015 mPa·s
same,viscosity,"308.15 K, 101.33 kPa, x1 = 0.15",0.994 ± 0.016 mPa·s
same,viscosity,"308.15 K, 101.33 kPa, x1 = 0.2",1.025 ± 0.016 mPa·s
same,viscosity,"308.15 K, 101.33 kPa, x1 = 0.25",1.055 ± 0.017 mPa·s
same,viscosity,"308.15 K, 101.33 kPa, x1 = 0.3003",1.081 ± 0.017 mPa·s
same,viscosity,"308.15 K, 101.33 kPa, x1 = 0.35",1.111 ± 0.018 mPa·s
same,viscosity,"308.15 K, 101.33 kPa, x1 = 0.3999",1.138 ± 0.018 mPa·s
same,viscosity,"308.15 K, 101.33 kPa, x1 = 0.45",1.163 ± 0.018 mPa·s
same,viscosity,"308.15 K, 101.33 kPa, x1 = 0.5",1.188 ± 0.019 mPa·s
same,viscosity,"308.15 K, 101.33 kPa, x1 = 0.5498",1.211 ± 0.019 mPa·s
same,viscosity,"308.15 K, 101.33 kPa, x1 = 0.5998",1.23 ± 0.019 mPa·s
same,viscosity,"308.15 K, 101.33 kPa, x1 = 0.6498",1.245 ± 0.019 mPa·s
same,viscosity,"308.15 K, 101.33 kPa, x1 = 0.7",1.263 ± 0.02 mPa·s
same,viscosity,"308.15 K, 101.33 kPa, x1 = 0.75",1.275 ± 0.02 mPa·s
same,viscosity,"308.15 K, 101.33 kPa, x1 = 0.8002",1.289 ± 0.02 mPa·s
same,viscosity,"308.15 K, 101.33 kPa, x1 = 0.8498",1.3 ± 0.02 mPa·s
same,viscosity,"308.15 K, 101.33 kPa, x1 = 0.8999",1.308 ± 0.02 mPa·s
same,viscosity,"308.15 K, 101.33 kPa, x1 = 0.9499",1.318 ± 0.02 mPa·s
same,viscosity,"318.15 K, 101.33 kPa, x1 = 0.0501",0.779 ± 0.013 mPa·s
same,viscosity,"318.15 K, 101.33 kPa, x1 = 0.1",0.801 ± 0.013 mPa·s
same,viscosity,"318.15 K, 101.33 kPa, x1 = 0.15",0.822 ± 0.013 mPa·s
same,viscosity,"318.15 K, 101.33 kPa, x1 = 0.2",0.846 ± 0.014 mPa·s
same,viscosity,"318.15 K, 101.33 kPa, x1 = 0.25",0.866 ± 0.014 mPa·s
same,viscosity,"318.15 K, 101.33 kPa, x1 = 0.3003",0.887 ± 0.014 mPa·s
same,viscosity,"318.15 K, 101.33 kPa, x1 = 0.35",0.909 ± 0.015 mPa·s
same,viscosity,"318.15 K, 101.33 kPa, x1 = 0.3999",0.928 ± 0.015 mPa·s
same,viscosity,"318.15 K, 101.33 kPa, x1 = 0.45",0.947 ± 0.015 mPa·s
same,viscosity,"318.15 K, 101.33 kPa, x1 = 0.5",0.964 ± 0.015 mPa·s
same,viscosity,"318.15 K, 101.33 kPa, x1 = 0.5498",0.979 ± 0.016 mPa·s
same,viscosity,"318.15 K, 101.33 kPa, x1 = 0.5998",0.991 ± 0.016 mPa·s
same,viscosity,"318.15 K, 101.33 kPa, x1 = 0.6498",1.004 ± 0.016 mPa·s
same,viscosity,"318.15 K, 101.33 kPa, x1 = 0.7",1.017 ± 0.016 mPa·s
same,viscosity,"318.15 K, 101.33 kPa, x1 = 0.75",1.029 ± 0.016 mPa·s
same,viscosity,"318.15 K, 101.33 kPa, x1 = 0.8002",1.038 ± 0.016 mPa·s
same,viscosity,"318.15 K, 101.33 kPa, x1 = 0.8498",1.048 ± 0.017 mPa·s
same,viscosity,"318.15 K, 101.33 kPa, x1 = 0.8999",1.058 ± 0.017 mPa·s
same,viscosity,"318.15 K, 101.33 kPa, x1 = 0.9499",1.068 ± 0.017 mPa·s
